Data reported in ChEMBL document CHEMBL2163300, “Mitogen-activated protein kinase-activated protein kinase 2 (MAPKAP-K2) as an antiinflammatory target: discovery and in vivo activity of selective pyrazolo[1,5-a]pyrimidine inhibitors using a focused library and structure-based optimization approach” (J Med Chem, 2012).
The source made the active and inactive calls. The rule behind the calls is not given here.

Tests used:
[1] = target: T1, MAP kinase-activated protein kinase 2 (Homo sapiens, UniProt P49137); assay: Inhibition of MAPKAP-K2 using KKLNRTLSVA as substrate and [33P]-gamma-ATP after 30 mins by liquid scintillation counter
T1 sequence (P49137 whole entry): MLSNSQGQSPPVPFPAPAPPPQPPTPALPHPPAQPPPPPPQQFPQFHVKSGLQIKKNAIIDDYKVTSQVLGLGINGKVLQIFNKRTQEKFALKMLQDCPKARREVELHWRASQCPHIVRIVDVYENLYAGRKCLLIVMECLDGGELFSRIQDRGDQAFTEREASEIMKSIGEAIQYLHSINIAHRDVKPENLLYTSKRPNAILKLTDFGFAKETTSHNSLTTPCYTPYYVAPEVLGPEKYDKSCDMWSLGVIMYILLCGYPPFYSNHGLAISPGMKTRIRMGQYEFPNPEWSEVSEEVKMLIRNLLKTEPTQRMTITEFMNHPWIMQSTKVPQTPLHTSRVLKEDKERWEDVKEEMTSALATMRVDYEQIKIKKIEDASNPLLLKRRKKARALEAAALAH

[2] = target: T1, MAP kinase-activated protein kinase 2; assay: Binding affinity to recombinant MAPKAP-K2 using KKKALSRQLSVAA as substrate after 4 mins by […]
[3] = target: Cyclin-dependent kinase 2 (Homo sapiens, UniProt P24941)
Description: Inhibition of CDK2 after 60 mins using [33P]-gamma-ATP by liquid scintillation counter

[4] = target: Serine/threonine-protein kinase Chk2 (Homo sapiens) (UniProt O96017); assay: Inhibition of human CHK2 at 30 uM by Cyclex assay
Chain of Serine/threonine-protein kinase Chk2 (Homo sapiens) (O96017 whole entry): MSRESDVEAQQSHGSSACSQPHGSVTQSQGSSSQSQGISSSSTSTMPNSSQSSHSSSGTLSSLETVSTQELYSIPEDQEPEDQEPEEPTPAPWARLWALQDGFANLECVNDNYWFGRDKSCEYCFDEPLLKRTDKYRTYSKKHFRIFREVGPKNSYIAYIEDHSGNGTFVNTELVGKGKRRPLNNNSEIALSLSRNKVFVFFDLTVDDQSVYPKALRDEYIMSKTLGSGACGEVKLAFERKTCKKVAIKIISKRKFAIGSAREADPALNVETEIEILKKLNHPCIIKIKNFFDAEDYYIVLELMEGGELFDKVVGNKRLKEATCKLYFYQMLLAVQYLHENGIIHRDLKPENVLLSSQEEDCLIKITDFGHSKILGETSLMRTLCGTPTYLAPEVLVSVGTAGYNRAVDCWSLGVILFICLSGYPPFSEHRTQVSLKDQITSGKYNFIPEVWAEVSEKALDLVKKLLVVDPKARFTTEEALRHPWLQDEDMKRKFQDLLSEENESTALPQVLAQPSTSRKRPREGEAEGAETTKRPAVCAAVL

[5] = target: T1, MAP kinase-activated protein kinase 2; assay: Inhibition of MAPKAP-K2
[6] = test system: THP-1; assay: Cytotoxicity against human THP1 cells assessed as cell viability by MTS assay; assay type: cell-based
[7] = target: T1, MAP kinase-activated protein kinase 2; assay: Inhibition of human MAPKAP-K2 in THP1 cells assessed as inhibition of LPS-induced TNFalpha production incubated 1 hr prior to LPS challenge measured 18 hrs post LPS challenge by HTRF assay; assay type: cell-based, THP-1
[8] = AUC (0 to 24 hrs) in mouse at 1 mg/kg, po; assay type: ADME, organism-based; parameters: time < 24 hr, dose 1 mg/kg, route oral; conditions: plasma
[9] = Total clearance in mouse at 1 mg/kg, iv; assay type: ADME, organism-based; parameters: dose 1 mg/kg, route intravenous; conditions: in vivo
[10] = Oral bioavailability in mouse at 1 mg/kg; assay type: ADME, organism-based; conditions: in vivo
[11] = Half life in mouse at 1 mg/kg, iv; assay type: ADME, organism-based; parameters: dose 1 mg/kg, route intravenous; conditions: in vivo
[12] = test system: Mus musculus; assay: Antiinflammatory activity in po dosed C57BL/6 mouse assessed as decrease in LPS-induced serum TNFalpha level administered 30 mins prior to LPS challenge measured 60 mins post LPS challenge by ELISA; assay type: functional, organism-based

IC50 [1] [µM]	IC50 [3] [µM]	Structure (SMILES)	also measured
0.7		CCOC(=O)c1ccc(Nc2c(C)c(N[C@H]3CC[C@H](N)CC3)nc3ccnn23)cc1	
8.1	0.003	N[C@H]1CC[C@H](Nc2cc(Nc3ccc(F)c(Cl)c3)n3ncc(Cl)c3n2)CC1	
0.076	27	Cc1c(N[C@H]2CCCNC2)nc2ccnn2c1Nc1ccc2c(cnn2C)c1	
0.2	0.39	N[C@H]1CC[C@H](Nc2cc(Nc3ccccc3Cl)n3nccc3n2)CC1	inhibition [4]: inactive
3		Cc1c(N[C@H]2CC[C@H](N)CC2)nc2ccnn2c1Nc1cccc(OCc2ccccc2)c1	
2		CCN[C@H]1CC[C@H](Nc2cc(Nc3ccc(F)c(Cl)c3)n3nccc3n2)CC1	
1.9		CCOC(=O)c1cccc(Nc2c(C)c(N[C@H]3CC[C@H](N)CC3)nc3ccnn23)c1	
> 100		CCN(CC)[C@H]1CC[C@H](Nc2cc(Nc3ccc(F)c(Cl)c3)n3nccc3n2)CC1	
> 300		Cc1cc2nc(N[C@H]3CC[C@H](N)CC3)cc(Nc3ccc(F)c(Cl)c3)n2n1	
0.16	62	Cc1c(N[C@H]2CCCNC2)nc2ccnn2c1Nc1ccc(OCCN2CCOCC2)cc1	
0.7	24	CCc1c(NC2CCCNC2)nc2ccnn2c1Nc1ccc(F)c(Cl)c1 (racemic)	
> 100		CC(=O)N[C@H]1CC[C@H](Nc2cc(Nc3ccc(F)c(Cl)c3)n3nccc3n2)CC1	
0.13	22	COCCOc1ccc(Nc2c(C)c(N[C@H]3CCCNC3)nc3ccnn23)cc1	IC50 [6]: > 100 µM; IC50 [7]: 7.6 µM; AUC(0-t) at 24 h [8]: 0.316 µM·h; clearance [9]: 58.3 mL/min/kg; bioavailability [10]: 80%; half-life [11]: 1 h
0.14	49	Cc1c(N[C@H]2CCCNC2)nc2ccnn2c1Nc1ccc(C(=O)NC2CCCC2)cc1	
0.51	33	Cc1c(NC2CCCNC2)nc2ccnn2c1Nc1ccc(F)c(Cl)c1 (racemic)	
0.36		CCOc1ccc(Nc2c(C)c(N[C@H]3CC[C@H](N)CC3)nc3ccnn23)cc1	inhibition [4]: inactive
0.4	11	Cc1c(N[C@H]2CC[C@H](N)CC2)nc2ccnn2c1Nc1ccc(F)c(Cl)c1	
0.4	0.7	Fc1ccc(Nc2cc(NC3CCCNC3)nc3ccnn23)cc1Cl (racemic)	
0.057	21	CC(=O)c1ccc(-c2ccc(Nc3c(C)c(N[C@H]4CCCNC4)nc4ccnn34)cc2)s1	
0.4	3.6	CCc1c(N[C@H]2CC[C@H](N)CC2)nc2ccnn2c1Nc1ccc(F)c(Cl)c1	inhibition [4]: inactive
> 300		CN(c1ccc(F)c(Cl)c1)c1cc(N[C@H]2CC[C@H](N)CC2)nc2ccnn12	
2.5		CCOc1ccc(Nc2c(C)c(NCCN)nc3ccnn23)cc1	
9.2	0.0034	N[C@H]1CC[C@H](Nc2cc(Nc3ccc(F)c(Cl)c3)n3ncc(Br)c3n2)CC1	
11		N[C@H]1CC[C@H](Nc2cc(NCC3CCCCC3)n3nccc3n2)CC1	
1.7	6.4	Cc1c(N[C@H]2CC[C@H](N)CC2)nc2ccnn2c1Nc1ccccc1Cl	

The remaining lines, values behind:

Structure (SMILES)	IC50 [1] [µM]	IC50 [3] [µM]	also measured
CCOc1ccc(Nc2c(C)c(N[C@H]3CCCNC3=O)nc3ccnn23)cc1	> 100		
Fc1ccc(Nc2cc(NC3CCCCC3)nc3ccnn23)cc1Cl	> 100		
Cc1ccc(-c2ccc3c(ccc4sc5c(c43)NC[C@@H](C)NC5=O)n2)cn1			IC50 [2]: 0.005 µM
CCOc1ccc(Nc2c(C)c(NCCCCN)nc3ccnn23)cc1	4.1		
CCOc1ccc(Nc2c(C)c(O[C@H]3CC[C@H](N)CC3)nc3ccnn23)cc1	0.57		
NC1CCCC(Nc2cc(Nc3ccc(F)c(Cl)c3)n3nccc3n2)C1 (centres undefined)	> 100		
CCOc1cccc(Nc2c(C)c(N[C@H]3CC[C@H](N)CC3)nc3ccnn23)c1	1.4		
N[C@H]1CC[C@H](Nc2nc3ccnn3c(Nc3ccc(F)c(Cl)c3)c2-c2ccccc2)CC1	1.6	6	
N#Cc1c(N)nc2c(c1N)Cc1cc(O)c(O)cc1O2			IC50 [5]: 0.13 µM
Fc1ccc(Nc2cc(NCC3CCNCC3)nc3ccnn23)cc1Cl	> 100		
Nc1ccc(Nc2cc(Nc3ccc(F)c(Cl)c3)n3nccc3n2)cc1	> 100		
CCOc1ccc(Nc2c(C)c(NCCO)nc3ccnn23)cc1	83		
CCOc1ccc(Nc2c(C)c(N(C)C3CCCNC3)nc3ccnn23)cc1 (racemic)	26		
CC(C)CCNc1cc(N[C@H]2CC[C@H](N)CC2)nc2ccnn12	12		
Fc1ccc(Nc2cc(NC3CCNCC3)nc3ccnn23)cc1Cl	25		
Cc1c(N[C@H]2CC[C@H](N)CC2)nc2ccnn2c1Nc1ccc(OCc2ccccc2)cc1	0.7		
CCOc1ccc(Nc2c(C)c(NCCCN)nc3ccnn23)cc1	8.7		
N#Cc1cnn2c(Nc3ccc(F)c(Cl)c3)cc(N[C@H]3CC[C@H](N)CC3)nc12	3.1	0.004	
CCCc1c(N[C@H]2CC[C@H](N)CC2)nc2ccnn2c1Nc1ccc(F)c(Cl)c1	0.6	2.1	
N[C@H]1CC[C@H](Nc2cc(NCc3ccccc3)n3nccc3n2)CC1	7		
CCOc1ccc(Nc2c(C)c(N[C@H]3CC[C@H](O)CC3)nc3ccnn23)cc1	89		
Cc1nc2ccc(Nc3c(C)c(N[C@H]4CCCNC4)nc4ccnn34)cc2s1	0.054	25	IC50 [6]: 54 µM; IC50 [7]: 8.4 µM; AUC(0-t) at 24 h [8]: 0.579 µM·h; clearance [9]: 58.3 mL/min/kg; bioavailability [10]: 79%; half-life [11]: 2.6 h
CC(C)(C)c1cc2nc(N[C@H]3CC[C@H](N)CC3)cc(Nc3ccc(F)c(Cl)c3)n2n1	> 300		
CCc1c(N[C@H]2CC[C@H](N)CC2)nc2ccnn2c1Nc1ccccc1Cl	1.5	> 300	
Cc1ccc(-n2nc(C(C)(C)C)cc2NC(=O)Nc2ccc(OCCN3CCOCC3)c3ccccc23)cc1			Activity [12]: Dose-dependent effect
